Laboratory results as given in patent US20080260774A1, “Alpha-galactosyl ceramide analogs and their use as immunotherapies” (priority 2007, published 2008).

How the values were obtained:
[1] = system: human naïve NKTs (CD161^+CD3^+); test: Cytokine/chemokine secretion by human naïve CD161+CD3+ NKTs co-cultured with autologous immature CD14+ DCs; assay type: cell-based; details: for IFN/IL-4 ratio (TH1/TH2 bias): normalized to DMSO control
[2] = system: syngeneic lung cancer (TC1) cells; test: Lung cancer model in mice (TC1, IV inoculation); assay type: in vivo, mouse; details: IV administration
BALB/c mice = test: Expansion/activation of mouse splenocyte subpopulations 72 h after injection; assay type: in vivo

| Compound | IFN/IL-4 ratio (TH1/TH2 bias) [1] | anti-cancer efficacy compared with C1 [2] | induction of IL-3, GM-CSF and IL-15 ([1]; 10 μg/ml, 18 hour culture) | B cell expansion (BALB/c mice; FIGS. 26E, 28E and 30E) | total and mature DCs (BALB/c mice; FIGS. 26B, 28B and 30B, compared with C1) | expansion/activation of NKs and NKTs (BALB/c mice; FIGS. 26C-D, 28C-D and 30C-D) | CD8^+ T cell expansion/activation (BALB/c mice; FIGS. 26F, 28F and 30F) | activation of B cells (BALB/c mice; IM route, compared with C1) |
| --- | --- | --- | --- | --- | --- | --- | --- | --- |
| CCCCCCCCCCCCCCCCCCCCCCCCCC(=O)N[C@@H](CS[C@H]1O[C@H](CO)[C@H](O)[C@H](O)[C@H]1O)[C@H](O)[C@H](O)CCCCCCCCCCCCCC [C4] | more TH2-biased |  |  |  |  |  |  |  |
| CCCCCCCCCCCCCC[C@@H](O)[C@@H](O)[C@H](CO[C@H]1O[C@H](CO)[C@H](O)[C@H](O)[C@H]1O)NC(=O)CCCCCc1ccccc1 [C10] |  | significantly greater anti-cancer efficacy than C1 | greater induction of IL-3, granulocyte/macrophage colony-stimulating factor (GM-CSF), and IL-15 | more active than C1 |  |  |  |  |
| CCCCCCCCCCCCCCCCCCCCCCCCCC(=O)N[C@@H](CO[C@H]1O[C@H](CO)[C@H](O)[C@H](O)[C@H]1O)[C@H](O)[C@H](O)CCCCc1ccccc1 [C12] | more TH1-biased | significantly greater anti-cancer efficacy than C1 |  |  | significantly greater rises in total and mature DCs than C1 | best capacity for expansion/activation of NKs and NKTs | more active than C1 | stronger activations of B cells than C1 |
